Test results: patent publication EP4741414A1, “PEPTIDE HAVING CELL MEMBRANE PERMEABILITY AND SCREENING METHOD THEREFOR” (priority 2023, dated 2025)
Primed or numbered codes have the meaning given here. No end group written: not given here. PEG8′ = PEG8 linker (eight-unit polyethylene glycol spacer); FAM = fluorescein amidite

Assays:
[1] = tested on: three-dimensional skin model EpiDerm Full Thickness 400
Procedure: A three-dimensional skin model EpiDerm Full Thickness 400 was prepared in accordance with the manual of its manufacturer in the same manner as in Experimental Example 8. […] As a control, the known cell-penetrating peptide TAT (the sequence obtained by removing C at the N-terminal from the amino acid sequence shown in SEQ ID NO: 51) was used, and the N-terminal side thereof was modified with FAM (similarly synthesized by Eurofins Genomics K.K., theoretical molecular weight: 1,979.2).
100 Microliters of a 1% DMSO-containing PBS solution of each of the FAM-modified peptides was added to a central portion on the donor side of a cup in which the skin model was built to initiate the penetrability assay (n=3). After incubation at 37 °C under 5% CO2 for 24 h, the medium outside the cup was collected, and the concentration of peptide that penetrated the skin model was quantified fluorometrically using a microplate reader (TECAN Spark; excitation wavelength: 494 nm, emission wavelength: 521 nm).

THP-1 macrophages = test: Intracellular delivery of Alexa 647-labeled IgG-peptide conjugates to THP-1 macrophages; format: cell-based; details: for intracellular delivery amount of IgG: final concentration 5 µM, versus IgG, FIG. 12, FIG. 13; for intracellular delivery amount of IgG / intracellularly delivered amount into macrophages: uptake time 1 h; for intracellularly delivered amount into macrophages: final concentration 1 µM, compared with R001, R005 conjugates, FIG. 14; for cell-type-selective plasma membrane-penetrating activity: macrophages versus A549 cells, 1 µM, FIG. 16
From the text: The reaction liquid was applied to a Zeba spin desalting column (7K MWCO) equilibrated with PBS, and an unreacted cross-linking agent was removed. Thus, an IgG fraction was recovered. The peptides (synthesized by Eurofins Genomics K.K., the amino acid sequences of the peptides that are each conjugated with the IgG are shown in the following table) obtained by the above-mentioned screening, the peptides each including an amino acid sequence and each having C at its N-terminal, were each dissolved in DMSO so that a 10 mM DMSO solution was obtained. The DMSO solution of the peptide whose molar amount was 5 times as large as that of the IgG was added to the recovered IgG fraction, and EDTA was further added to the mixture so that its final concentration was 1 mM, followed by stirring by inversion at 25°C for 1 hour. After that, a fivefold molar amount of cysteine was added to the mixture, and the whole was stirred by inversion at 25°C for 30 minutes. The reaction liquid was applied to a Zeba spin desalting column (7K MWCO) equilibrated with PBS, and the peptide and cysteine that were unreacted, and EDTA were removed. Thus, an IgG-peptide conjugate was recovered.
The assay was conducted using THP-1 macrophages, which had been seeded in a 96-well plate at 20,000 cells/well, and had already been activated with PMA, IFN γ, and LPS. […] Images acquired with the all-in-one fluorescence microscope BZ-X810 (Keyence Corporation) were analyzed using the accompanying software BZ-X800 Analyzer. The uptake ratio at an uptake time of 1 h was compared based on the ratio of integrated red fluorescence intensity to integrated blue fluorescence intensity.
The uptake ratios of the proteins at an uptake time of 1 hour, which were each determined from the ratio of the brightness (integrated) of a red color to the brightness (integrated) of a blue color, were compared to each other.

A549 cells = test: Intracellular delivery of Alexa 647-labeled IgG-peptide conjugates to A549 cells; format: cell-based; details: for cell-type-selective plasma membrane-penetrating activity: A549 cells versus macrophages, 1 µM, FIG. 16; for intracellularly delivered amount into A549 cells: final concentration 1 µM, uptake time 1 h, compared with T001, T006 conjugates, FIG. 15
Procedure: Cells 1 hour after the addition of the protein solution were observed and photographed with an all-in-one fluorescence microscope BZ-X810 (Keyence Corporation) in the same manner as in Experimental Example 14 except that A549 cells cultured in the same manner as in Experimental Example 11 were used, followed by image analysis with software BZ-X800 Analyzer included therein. The uptake ratios of the proteins at an uptake time of 1 hour, which were each determined from the ratio of the brightness (integrated) of a red color to the brightness (integrated) of a blue color, were compared to each other. The results are shown in FIG. 15 (in the figure, the height of a bar represents the average of "n" values (n=2 to 3) and an error bar represents its standard deviation).

Substance: FAM-labeled SEQ ID NO: 40 peptide: N-terminal side of the peptide represented by SEQ ID NO: 40 modified with fluorescein amidite (FAM) through a PEG8 linker ({FAM-PEG8′}-RWNCVSCAFL; cysteine pairing not given here)
- penetrability (ratio of penetrated amount outside the cup to added amount) [1]: 49.8±10.0%

Substance: CYGRKKRRQRRR (CYGRKKRRQRRR-NH2; also: conjugated to Alexa 647-IgG via maleimide-PEG2-NHS) [TAT, Alexa 647-labeled IgG bonded with known membrane-permeable peptide TAT via Maleimide-PEG2-NHS Ester, reference compound]
- intracellular delivery amount of IgG (THP-1 macrophages): no increase in cellular translocation was observed

Substance: CLFKAWLGVYH [R001]
- cell-type-selective plasma membrane-penetrating activity (A549 cells): cell-type-selective plasma membrane-penetrating activity in A549 cells
- intracellularly delivered amount into A549 cells (A549 cells): greater increase in the intracellularly delivered amount into A549 cells

Substance: CGGSRVVSYLAEYH [R005]
- cell-type-selective plasma membrane-penetrating activity (A549 cells): cell-type-selective plasma membrane-penetrating activity in A549 cells
- intracellularly delivered amount into A549 cells (A549 cells): greater increase in the intracellularly delivered amount into A549 cells

Substance: CRWPLWMWFVW [T001]
- intracellularly delivered amount into macrophages (THP-1 macrophages): greater increase in the intracellularly delivered amount into macrophages
- intracellular delivery amount of IgG (THP-1 macrophages): increased the intracellular delivery amount of IgG
- cell-type-selective plasma membrane-penetrating activity (THP-1 macrophages): cell-type-selective plasma membrane-penetrating activity in macrophages

Substance: CGKEGGSRWLIFHYMLLGG [T005]
- intracellular delivery amount of IgG (THP-1 macrophages): increased the intracellular delivery amount of IgG

Substance: CRYYAHWLHYM [T006]
- intracellularly delivered amount into macrophages (THP-1 macrophages): greater increase in the intracellularly delivered amount into macrophages
- intracellular delivery amount of IgG (THP-1 macrophages): increased the intracellular delivery amount of IgG
- cell-type-selective plasma membrane-penetrating activity (THP-1 macrophages): cell-type-selective plasma membrane-penetrating activity in macrophages
